Values of other authors in US5998415A, “Bicyclic heteroaryl-alkylene-(homo)piperazinones and thione analogues thereof, their preparation, and their use of as selective agonists of 5-HT1 -like receptors” (Merck Sharp & Dohme Ltd., priority 1995, dated 1999).

Tests used:
[1] = tested on: human 5-HT1Dα and 5-HT1Dβ receptor subtypes; details: cf. WO-A-91/17174, Table 1
[2] = humans, therapeutic doses

In the case of `CNS(=O)(=O)Cc1ccc2[nH]cc(CCN(C)C)c2c1` [sumatriptan], the “discrimination between the human 5-HT1Dα and 5-HT1Dβ receptor subtypes (in words)” value [1] is given as “barely discriminates between the human 5-HT1Dα and 5-HT1Dβ receptor subtypes” and the “adverse cardiovascular events (in words)” value [2] is given as “certain adverse cardiovascular events”.
